Reference: BindingDB's records for doi:10.1021/jm0704898 (Georgetown University Medical Center, 2007)
pKi: −log10 of the molar value.

Columns and labels:
[1] = molecular target: T1, Suppressor of tumorigenicity 14 protein (Homo sapiens, UniProt Q9Y5Y6); experiment: Enzyme Inhibition Assay; settings: pH 8.5; 22 °C
T1 sequence (Q9Y5Y6 whole entry): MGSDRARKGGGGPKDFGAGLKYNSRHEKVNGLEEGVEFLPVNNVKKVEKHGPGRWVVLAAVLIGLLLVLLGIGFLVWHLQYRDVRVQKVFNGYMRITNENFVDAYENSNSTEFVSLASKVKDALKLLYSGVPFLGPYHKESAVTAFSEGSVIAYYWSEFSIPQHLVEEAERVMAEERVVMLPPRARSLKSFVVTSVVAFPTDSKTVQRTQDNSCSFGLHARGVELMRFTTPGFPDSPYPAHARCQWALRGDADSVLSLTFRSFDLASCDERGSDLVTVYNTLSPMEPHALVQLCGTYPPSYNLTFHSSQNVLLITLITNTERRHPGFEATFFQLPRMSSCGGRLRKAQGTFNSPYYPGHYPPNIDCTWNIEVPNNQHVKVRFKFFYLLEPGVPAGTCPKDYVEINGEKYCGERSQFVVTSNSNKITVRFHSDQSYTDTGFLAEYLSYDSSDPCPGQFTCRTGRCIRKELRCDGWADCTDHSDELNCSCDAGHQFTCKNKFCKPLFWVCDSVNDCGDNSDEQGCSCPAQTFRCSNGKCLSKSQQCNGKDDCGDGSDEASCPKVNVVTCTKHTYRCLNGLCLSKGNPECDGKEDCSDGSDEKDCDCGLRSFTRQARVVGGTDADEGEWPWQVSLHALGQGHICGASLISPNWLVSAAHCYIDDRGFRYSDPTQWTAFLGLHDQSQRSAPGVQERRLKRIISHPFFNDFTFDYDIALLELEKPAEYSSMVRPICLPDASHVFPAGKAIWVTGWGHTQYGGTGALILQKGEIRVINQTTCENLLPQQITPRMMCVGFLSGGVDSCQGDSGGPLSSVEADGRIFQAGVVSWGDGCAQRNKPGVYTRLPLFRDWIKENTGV
Method: (§1) The enzyme reaction was initiated by adding fluorescence peptide substrate to reaction mixture containing enzyme and test compounds. […] Hydrolysis rates were recorded in presence of six to seven different concentrations of inhibitor.

[2] = molecular target: Prothrombin (Bos taurus, UniProt P00735); experiment: Enzyme Inhibition Assay; settings: pH 8.5; 22 °C
Method: as §1

Row | Compound | pKi [1] | pKi [2]
1 | CC[C@H](C)[C@@H]1NC(=O)[C@@H]2CCCN2C(=O)[C@@H]2CCCN2C(=O)[C@H]([C@@H](C)CC)NC(=O)[C@H](CO)NC(=O)[C@H](CCCNC(=N)N)NC(=O)[C@H]([C@@H](C)O)NC(=O)[C@@H]2CSSC[C@H](NC1=O)C(=O)N[C@@H](Cc1ccccc1)C(=O)N1CCC[C@H]1C(=O)N[C@@H](CC(=O)O)C(=O)NCC(=O)N[C@@H](CCCNC(=N)N)C(=O)N2 [2-[(1R,4S,7S,13S,19S,22S,25S,28S,31R,34S,40S,43S,49S)-49-benzyl-4,19-bis[(2S)-butan-2-yl]-25,34-bis(3-carbamimidamidopropyl)-28-[(1R)-1-hydroxyethyl]-22-(hydroxymethyl)-3,6,12,18,21,24,27,30,33,36,39,42,48,51-tetradecaoxo-53,54-dithia-2,5,11,17,20,23,26,29,32,35,38,41,47,50-tetradecaazapentacyclo[29.20.4.0^{7,11}.0^{13,17}.0^{43,47}]pentapentacontan-40-yl]acetic acid] | 5.32 | 6.07
2 | CC[C@H](C)[C@@H]1NC(=O)[C@@H]2CCCN2C(=O)[C@@H]2CCCN2C(=O)[C@H]([C@@H](C)CC)NC(=O)[C@H](CO)NC(=O)[C@H](CCCCN)NC(=O)[C@H]([C@@H](C)O)NC(=O)[C@H](CO)NC(=O)[C@H](CCCN=C(N)N)NC(=O)CNC(=O)[C@H](CC(=O)O)NC(=O)[C@@H]2CCCN2C(=O)[C@H](Cc2ccccc2)NC(=O)[C@H](CO)NC1=O [2-[(1S,7S,10S,13S,16S,22S,25S,31S,34S,37S,40S,43S,46S)-40-(4-aminobutyl)-16-benzyl-10,46-bis[(2S)-butan-2-yl]-31-(3-carbamimidamidopropyl)-37-[(1R)-1-hydroxyethyl]-13,34,43-tris(hydroxymethyl)-2,8,11,14,17,23,26,29,32,35,38,41,44,47-tetradecaoxo-3,9,12,15,18,24,27,30,33,36,39,42,45,48-tetradecaazatetracyclo[46.3.0.0^{3,7}.0^{18,22}]henpentacontan-25-yl]acetic acid] | 3.97 | 4.39
